Columns and labels:
Format in all cases: cell-based
[1] = test system: interferon-stimulated responsive elements (ISRE); assay: Activation of ISRE promoter elements in HEK-ISREluc cells by conditioned media from compound-treated PBMC; conditions: lowest effective concentration applied to PBMCs, supernatant transferred to HEK-ISREluc cells, 24 hours, read-out: HEK-ISRE luc (LEC)
Method: The potential of compounds to induce IFN-I was also evaluated by measuring the activation of interferon-stimulated responsive elements (ISRE) by conditioned media from PBMC. The ISRE element of sequence GAAACTGAAACT (SEQ ID NO: 1) is highly responsive to the STAT1-STAT2-IRF9 transcription factor, activated upon binding of IFN-I to their receptor IFNAR (Clontech, PT3372-5W). The plasmid pISRE-Luc from Clontech (ref. 631913) contains 5 copies of this ISRE element, followed by the firefly luciferase ORF. A HEK293 cell line stably transfected with pISRE-Luc (HEK-ISREluc) was established to profile the conditioned PBMC cell culture media.
Briefly, PBMCs were prepared from buffy coats of at least two donors using a standard Ficoll centrifugation protocol. Isolated PBMCs were resuspended in RPMI medium supplemented with 10% human AB serum and 2×10^5 cells/well were dispensed into 384-well plates containing compounds (70 μL total volume). After overnight incubation, 10 μL of supernatant was transferred to 384-well plates containing 5×10^3 HEK-ISREIuc cells/well in 30 μL (plated the day before). Following 24 hours of incubation, activation of the ISRE elements was measured by assaying luciferase activity using 40 μL/well Steady Lite Plus substrate (Perkin Elmer) and measured with ViewLux ultraHTS microplate imager (Perkin Elmer). The stimulating activity of each compound on the HEK-ISREluc cells was reported as LEC value, defined as the compound concentration applied to the PBMCs resulting in a luciferase activity at least two fold above the standard deviation of the assay. The LEC in turn indicates the degree of ISRE activation on transfer of a defined amount of PBMC culture medium. Recombinant interferon α-2a (Roferon-A) was used as a standard control compound.

human TLR7 = molecular target: T1, human TLR7 (Homo sapiens, UniProt Q9NYK1); assay: TLR7 cellular NFκB-luc reporter assay in transiently transfected HEK293 cells; conditions: lowest effective concentration, 6 hours incubation
T1 construct: expressed in transfected cells; host or cells: HEK293
T1 sequence (Q9NYK1 27-1049): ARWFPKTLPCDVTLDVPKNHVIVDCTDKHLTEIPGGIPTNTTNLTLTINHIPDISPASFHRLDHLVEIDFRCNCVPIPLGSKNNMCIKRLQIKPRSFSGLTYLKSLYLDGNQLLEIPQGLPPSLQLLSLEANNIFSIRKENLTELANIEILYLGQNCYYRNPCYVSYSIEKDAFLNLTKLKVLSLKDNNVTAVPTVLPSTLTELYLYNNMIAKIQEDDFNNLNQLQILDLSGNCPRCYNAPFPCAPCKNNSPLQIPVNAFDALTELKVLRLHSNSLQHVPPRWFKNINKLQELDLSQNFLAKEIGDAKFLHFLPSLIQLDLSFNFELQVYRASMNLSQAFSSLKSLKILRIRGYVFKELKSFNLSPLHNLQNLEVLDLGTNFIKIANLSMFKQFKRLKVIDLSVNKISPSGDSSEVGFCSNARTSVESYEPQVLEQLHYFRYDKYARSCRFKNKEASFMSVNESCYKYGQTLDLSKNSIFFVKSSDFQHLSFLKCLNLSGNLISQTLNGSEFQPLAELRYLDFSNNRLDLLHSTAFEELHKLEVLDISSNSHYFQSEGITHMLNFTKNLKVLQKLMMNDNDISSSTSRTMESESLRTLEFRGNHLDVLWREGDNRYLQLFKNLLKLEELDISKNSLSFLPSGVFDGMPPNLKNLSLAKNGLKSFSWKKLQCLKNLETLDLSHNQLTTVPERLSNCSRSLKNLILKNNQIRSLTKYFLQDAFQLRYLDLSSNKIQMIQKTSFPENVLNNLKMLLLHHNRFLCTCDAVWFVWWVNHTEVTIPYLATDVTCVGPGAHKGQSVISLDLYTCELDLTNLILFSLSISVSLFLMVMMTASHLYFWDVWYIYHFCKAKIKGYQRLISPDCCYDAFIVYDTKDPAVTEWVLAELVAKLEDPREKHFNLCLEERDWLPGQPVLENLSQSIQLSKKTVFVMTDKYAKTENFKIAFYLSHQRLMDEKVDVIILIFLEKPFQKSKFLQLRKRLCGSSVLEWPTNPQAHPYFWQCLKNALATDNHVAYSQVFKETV
Method: (§1) The ability of compounds to activate human TLR7 and/or TLR8 was assessed in a cellular reporter assay using HEK293 cells transiently transfected with a TLR7 or TLR8 expression vector and NFκB-luc reporter construct.
(§2) Briefly, HEK293 cells were grown in culture medium (DMEM supplemented with 10% FCS and 2 mM Glutamine). For transfection of cells in 15 cm dishes, cells were detached with Trypsin-EDTA, transfected with a mix of CMV-TLR7 or TLR8 plasmid (1700 ng), NFκB-luc plasmid (850 ng) and a transfection reagent and incubated for 48 h at 37° C. in a humidified 5% CO2 atmosphere. Transfected cells were then washed in PBS, detached with Trypsin-EDTA and resuspended in medium to a density of 1.25×10^5 cells/mL. Forty microliters of cells were then dispensed into each well in 384-well plates, where 200 nL of compound in 100% DMSO was already present. Following 6 hours incubation at 37° C., 5% CO2, the luciferase activity was determined by adding 15 μL of Steady Lite Plus substrate (Perkin Elmer) to each well and readout performed on a ViewLux ultraHTS microplate imager (Perkin Elmer). Dose response curves were generated from measurements performed in quadruplicates. Lowest effective concentrations (LEC) values, defined as the concentration that induces an effect which is at least two fold above the standard deviation of the assay, were determined for each compound.

human TLR8 = molecular target: T2, human TLR8 (Homo sapiens, UniProt Q9NR97); assay: TLR8 cellular NFκB-luc reporter assay in transiently transfected HEK293 cells; conditions: lowest effective concentration, 6 hours incubation
T2 construct: expressed in transfected cells; host or cells: HEK293
T2 sequence (Q9NR97 27-1041): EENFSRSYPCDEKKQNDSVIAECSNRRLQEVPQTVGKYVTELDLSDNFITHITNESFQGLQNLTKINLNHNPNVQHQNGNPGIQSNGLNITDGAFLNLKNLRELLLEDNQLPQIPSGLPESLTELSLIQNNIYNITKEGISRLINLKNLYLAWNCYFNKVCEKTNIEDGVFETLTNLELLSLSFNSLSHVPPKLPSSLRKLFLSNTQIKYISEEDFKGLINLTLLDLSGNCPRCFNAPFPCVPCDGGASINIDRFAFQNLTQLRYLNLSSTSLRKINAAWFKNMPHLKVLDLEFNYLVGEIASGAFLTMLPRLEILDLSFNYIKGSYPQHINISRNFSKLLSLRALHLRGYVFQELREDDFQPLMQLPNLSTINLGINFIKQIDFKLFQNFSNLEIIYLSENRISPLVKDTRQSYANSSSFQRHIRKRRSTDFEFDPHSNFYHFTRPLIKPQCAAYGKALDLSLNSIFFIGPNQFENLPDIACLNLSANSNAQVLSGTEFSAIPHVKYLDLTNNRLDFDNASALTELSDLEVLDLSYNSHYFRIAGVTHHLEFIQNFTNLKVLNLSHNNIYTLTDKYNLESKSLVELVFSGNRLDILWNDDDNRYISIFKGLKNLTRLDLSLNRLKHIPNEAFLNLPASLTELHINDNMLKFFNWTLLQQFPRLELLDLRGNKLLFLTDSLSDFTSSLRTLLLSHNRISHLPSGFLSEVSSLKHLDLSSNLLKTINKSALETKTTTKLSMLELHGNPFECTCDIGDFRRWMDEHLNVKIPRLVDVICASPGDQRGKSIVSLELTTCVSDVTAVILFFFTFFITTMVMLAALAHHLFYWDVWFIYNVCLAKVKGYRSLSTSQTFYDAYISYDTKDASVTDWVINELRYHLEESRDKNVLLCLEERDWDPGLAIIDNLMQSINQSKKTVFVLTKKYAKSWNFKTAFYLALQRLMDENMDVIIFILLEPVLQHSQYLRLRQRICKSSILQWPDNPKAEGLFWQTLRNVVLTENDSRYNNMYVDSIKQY
Method: as §1, §2

Row | Human TLR 7 (LEC) (human TLR7) | Human TLR 8 (LEC) (human TLR8) | Compound | minimal effective concentration [1]
1 | 1.0 µM | 0.5 µM | CCCCNc1nc(N)nc2cc(C)sc12 [Compound 1] | 0.1 µM
2 | 2.2 µM | 1.0 µM | CCCCNc1nc(N)nc2c(C)csc12 [Compound 2] | 0.6 µM
3 | 1.2 µM | 1.2 µM | CCCCNc1nc(N)nc2cc(C(C)(C)C)sc12 [Compound 3] | 0.4 µM
4 | 0.5 µM | 0.03 µM | CCCC[C@@H](CO)Nc1nc(N)nc2ccsc12 [Compound 4] | 0.04 µM
5 | 2.7 µM | 0.2 µM | CCC[C@@H](CO)Nc1nc(N)nc2ccsc12 [Compound 5] | 0.4 µM
6 | >25 µM | 0.5 µM | CCCC[C@H](CO)Nc1nc(N)nc2ccsc12 [Compound 6] | 0.6 µM
7 | 1.1 µM | 0.7 µM | CCCCNc1nc(N)nc2ccsc12 [Compound 7] | 0.3 µM
8 | 1.2 µM | 0.7 µM | CCCC[C@@H](CCO)Nc1nc(N)nc2ccsc12 [Compound 8] | 0.3 µM
9 | 3.3 µM | 2.5 µM | CCCC(C)Nc1nc(N)nc2ccsc12 (stereo not drawn) [Compound 9] | 3.8 µM
10 | 6.1 µM | 2.7 µM | CCC[C@H](Nc1nc(N)nc2ccsc12)C(=O)OC [Compound 10] | 0.8 µM
11 | 2.1 µM | 3.9 µM | CCCCCNc1nc(N)nc2ccsc12 [Compound 11] | 1.2 µM
12 | >25 µM | 7.2 µM | CCC[C@H](CO)Nc1nc(N)nc2ccsc12 [Compound 12] | 21 µM
13 | 12 µM | 0.2 µM | CCC[C@@H](CO)Nc1nc(N)nc2c(C)csc12 [Compound 13] | 0.6 µM
14 | 6.8 µM | 1.9 µM | CCCCCNc1nc(N)nc2c(C)csc12 [Compound 14] | 3.2 µM
15 | >25 µM | 3.5 µM | CCC[C@H](Nc1nc(N)nc2c(C)csc12)C(=O)OC [Compound 15] | 2.6 µM
16 | 5.2 µM | 1.6 µM | CCC[C@@H](CCO)Nc1nc(N)nc2c(C)csc12 [Compound 16] | 0.7 µM
17 | 3.7 µM | 0.3 µM | CCCC[C@@H](CO)Nc1nc(N)nc2c(C)csc12 [Compound 17] | 0.4 µM
18 | >25 µM | 0.8 µM | CCCC[C@H](CO)Nc1nc(N)nc2c(C)csc12 [Compound 18] | 1.7 µM
19 | 3.9 µM | 1.6 µM | CCCC[C@@H](CCO)Nc1nc(N)nc2c(C)csc12 [Compound 19] | 0.6 µM
20 | >25 µM | 6.9 µM | CCCC(C)Nc1nc(N)nc2cc(C)sc12 (stereo not drawn) [Compound 20] | 10.1 µM
21 | 10.4 µM | 0.6 µM | CCCC[C@H](CO)Nc1nc(N)nc2cc(C)sc12 [Compound 21] | 
22 | 2.9 µM | 0.2 µM | CCCC[C@@H](CO)Nc1nc(N)nc2cc(C)sc12 [Compound 22] | 
23 | 2.7 µM | 2.6 µM | CCCC[C@@H](CO)Nc1nc(N)nc2cc(C(C)(C)C)sc12 [Compound 23] | 

From patent US9556199B2, “Thieno[3,2-d]pyrimidines derivatives for the treatment of viral infections” (Janssen Sciences Ireland UC, priority 2013, dated 2017)
